Measured values published in ChEMBL document CHEMBL3217532, “New analyses of MIC90 data to aid antibacterial drug discovery” (2011).
≈ marks a conversion by molar mass, not a printed value.

System: Pseudomonas aeruginosa
Experiment: Antimicrobial activity against Pseudomonas aeruginosa 1957-00
Type: functional

Row | MIC90 [µg/mL] | SMILES
1 | 0.125 (≈ 0.176 µM) | C[C@H]1[C@H](NC(=O)/C(=N\OC(C)(C)C(=O)O)c2csc(N)n2)C(=O)N1C(=O)NS(=O)(=O)n1nc(-c2cc(=O)c(O)c[nH]2)n(CC(N)=O)c1=O

System: Pseudomonas aeruginosa
Experiment: Antimicrobial activity against Pseudomonas aeruginosa 1768-00
Type: functional

Row | MIC90 [µg/mL] | SMILES
2 | 0.06 (≈ 0.0843 µM) | C[C@H]1[C@H](NC(=O)/C(=N\OC(C)(C)C(=O)O)c2csc(N)n2)C(=O)N1C(=O)NS(=O)(=O)n1nc(-c2cc(=O)c(O)c[nH]2)n(CC(N)=O)c1=O

System: Pseudomonas aeruginosa
Experiment: Antimicrobial activity against Pseudomonas aeruginosa 1562-05
Type: functional

Row | MIC90 [µg/mL] | SMILES
3 | 0.125 (≈ 0.176 µM) | C[C@H]1[C@H](NC(=O)/C(=N\OC(C)(C)C(=O)O)c2csc(N)n2)C(=O)N1C(=O)NS(=O)(=O)n1nc(-c2cc(=O)c(O)c[nH]2)n(CC(N)=O)c1=O

System: Pseudomonas aeruginosa
Experiment: Antimicrobial activity against Pseudomonas aeruginosa 1753-00
Type: functional

Row | MIC90 [µg/mL] | SMILES
4 | 0.25 (≈ 0.351 µM) | C[C@H]1[C@H](NC(=O)/C(=N\OC(C)(C)C(=O)O)c2csc(N)n2)C(=O)N1C(=O)NS(=O)(=O)n1nc(-c2cc(=O)c(O)c[nH]2)n(CC(N)=O)c1=O

System: Pseudomonas aeruginosa
Experiment: Antimicrobial activity against Pseudomonas aeruginosa PA-1757
Type: functional

Row | MIC90 [µg/mL] | SMILES
5 | 4 (≈ 5.62 µM) | C[C@H]1[C@H](NC(=O)/C(=N\OC(C)(C)C(=O)O)c2csc(N)n2)C(=O)N1C(=O)NS(=O)(=O)n1nc(-c2cc(=O)c(O)c[nH]2)n(CC(N)=O)c1=O

System: Pseudomonas aeruginosa
Experiment: Antimicrobial activity against Pseudomonas aeruginosa 1568-05
Type: functional

Row | MIC90 [µg/mL] | SMILES
6 | 0.25 (≈ 0.351 µM) | C[C@H]1[C@H](NC(=O)/C(=N\OC(C)(C)C(=O)O)c2csc(N)n2)C(=O)N1C(=O)NS(=O)(=O)n1nc(-c2cc(=O)c(O)c[nH]2)n(CC(N)=O)c1=O

System: Pseudomonas aeruginosa
Experiment: Antimicrobial activity against Pseudomonas aeruginosa 1954-00
Type: functional

Row | MIC90 [µg/mL] | SMILES
7 | 0.06 (≈ 0.0843 µM) | C[C@H]1[C@H](NC(=O)/C(=N\OC(C)(C)C(=O)O)c2csc(N)n2)C(=O)N1C(=O)NS(=O)(=O)n1nc(-c2cc(=O)c(O)c[nH]2)n(CC(N)=O)c1=O

System: Pseudomonas aeruginosa
Experiment: Antimicrobial activity against Pseudomonas aeruginosa 1565-05
Type: functional

Row | MIC90 [µg/mL] | SMILES
8 | 0.125 (≈ 0.176 µM) | C[C@H]1[C@H](NC(=O)/C(=N\OC(C)(C)C(=O)O)c2csc(N)n2)C(=O)N1C(=O)NS(=O)(=O)n1nc(-c2cc(=O)c(O)c[nH]2)n(CC(N)=O)c1=O

System: Pseudomonas aeruginosa
Experiment: Antimicrobial activity against Pseudomonas aeruginosa 1612-09
Type: functional

Row | MIC90 [µg/mL] | SMILES
9 | 0.25 (≈ 0.351 µM) | C[C@H]1[C@H](NC(=O)/C(=N\OC(C)(C)C(=O)O)c2csc(N)n2)C(=O)N1C(=O)NS(=O)(=O)n1nc(-c2cc(=O)c(O)c[nH]2)n(CC(N)=O)c1=O

System: Pseudomonas aeruginosa
Experiment: Antimicrobial activity against Pseudomonas aeruginosa 1764-00
Type: functional

Row | MIC90 [µg/mL] | SMILES
10 | 0.25 (≈ 0.351 µM) | C[C@H]1[C@H](NC(=O)/C(=N\OC(C)(C)C(=O)O)c2csc(N)n2)C(=O)N1C(=O)NS(=O)(=O)n1nc(-c2cc(=O)c(O)c[nH]2)n(CC(N)=O)c1=O

System: Pseudomonas aeruginosa
Experiment: Antimicrobial activity against Pseudomonas aeruginosa 1512-08
Type: functional

Row | MIC90 [µg/mL] | SMILES
11 | 0.25 (≈ 0.351 µM) | C[C@H]1[C@H](NC(=O)/C(=N\OC(C)(C)C(=O)O)c2csc(N)n2)C(=O)N1C(=O)NS(=O)(=O)n1nc(-c2cc(=O)c(O)c[nH]2)n(CC(N)=O)c1=O

System: Pseudomonas aeruginosa
Experiment: Antimicrobial activity against Pseudomonas aeruginosa 1956-00
Type: functional

Row | MIC90 [µg/mL] | SMILES
12 | 0.06 (≈ 0.0843 µM) | C[C@H]1[C@H](NC(=O)/C(=N\OC(C)(C)C(=O)O)c2csc(N)n2)C(=O)N1C(=O)NS(=O)(=O)n1nc(-c2cc(=O)c(O)c[nH]2)n(CC(N)=O)c1=O

System: Pseudomonas aeruginosa
Experiment: Antimicrobial activity against Pseudomonas aeruginosa 1613-09
Type: functional

Row | MIC90 [µg/mL] | SMILES
13 | 0.5 (≈ 0.703 µM) | C[C@H]1[C@H](NC(=O)/C(=N\OC(C)(C)C(=O)O)c2csc(N)n2)C(=O)N1C(=O)NS(=O)(=O)n1nc(-c2cc(=O)c(O)c[nH]2)n(CC(N)=O)c1=O

System: Pseudomonas aeruginosa
Experiment: Antimicrobial activity against Pseudomonas aeruginosa 1566-05
Type: functional

Row | MIC90 [µg/mL] | SMILES
14 | 0.25 (≈ 0.351 µM) | C[C@H]1[C@H](NC(=O)/C(=N\OC(C)(C)C(=O)O)c2csc(N)n2)C(=O)N1C(=O)NS(=O)(=O)n1nc(-c2cc(=O)c(O)c[nH]2)n(CC(N)=O)c1=O

System: Pseudomonas aeruginosa
Experiment: Antimicrobial activity against Pseudomonas aeruginosa 1523-08
Type: functional

Row | MIC90 [µg/mL] | SMILES
15 | 0.25 (≈ 0.351 µM) | C[C@H]1[C@H](NC(=O)/C(=N\OC(C)(C)C(=O)O)c2csc(N)n2)C(=O)N1C(=O)NS(=O)(=O)n1nc(-c2cc(=O)c(O)c[nH]2)n(CC(N)=O)c1=O

System: Pseudomonas aeruginosa
Experiment: Antimicrobial activity against Pseudomonas aeruginosa 1563-00
Type: functional

Row | MIC90 [µg/mL] | SMILES
16 | 0.125 (≈ 0.176 µM) | C[C@H]1[C@H](NC(=O)/C(=N\OC(C)(C)C(=O)O)c2csc(N)n2)C(=O)N1C(=O)NS(=O)(=O)n1nc(-c2cc(=O)c(O)c[nH]2)n(CC(N)=O)c1=O

System: Pseudomonas aeruginosa
Experiment: Antimicrobial activity against Pseudomonas aeruginosa 1510-08
Type: functional

Row | MIC90 [µg/mL] | SMILES
17 | 2 (≈ 2.81 µM) | C[C@H]1[C@H](NC(=O)/C(=N\OC(C)(C)C(=O)O)c2csc(N)n2)C(=O)N1C(=O)NS(=O)(=O)n1nc(-c2cc(=O)c(O)c[nH]2)n(CC(N)=O)c1=O

System: Pseudomonas aeruginosa
Experiment: Antimicrobial activity against Pseudomonas aeruginosa 1570-05
Type: functional

Row | MIC90 [µg/mL] | SMILES
18 | 0.25 (≈ 0.351 µM) | C[C@H]1[C@H](NC(=O)/C(=N\OC(C)(C)C(=O)O)c2csc(N)n2)C(=O)N1C(=O)NS(=O)(=O)n1nc(-c2cc(=O)c(O)c[nH]2)n(CC(N)=O)c1=O

System: Pseudomonas aeruginosa
Experiment: Antimicrobial activity against Pseudomonas aeruginosa 1615-09
Type: functional

Row | MIC90 [µg/mL] | SMILES
19 | 0.25 (≈ 0.351 µM) | C[C@H]1[C@H](NC(=O)/C(=N\OC(C)(C)C(=O)O)c2csc(N)n2)C(=O)N1C(=O)NS(=O)(=O)n1nc(-c2cc(=O)c(O)c[nH]2)n(CC(N)=O)c1=O

System: Pseudomonas aeruginosa
Experiment: Antimicrobial activity against Pseudomonas aeruginosa 1766-00
Type: functional

Row | MIC90 [µg/mL] | SMILES
20 | 16 (≈ 22.5 µM) | C[C@H]1[C@H](NC(=O)/C(=N\OC(C)(C)C(=O)O)c2csc(N)n2)C(=O)N1C(=O)NS(=O)(=O)n1nc(-c2cc(=O)c(O)c[nH]2)n(CC(N)=O)c1=O

System: Pseudomonas aeruginosa
Experiment: Antimicrobial activity against Pseudomonas aeruginosa 1514-08
Type: functional

Row | MIC90 [µg/mL] | SMILES
21 | 0.5 (≈ 0.703 µM) | C[C@H]1[C@H](NC(=O)/C(=N\OC(C)(C)C(=O)O)c2csc(N)n2)C(=O)N1C(=O)NS(=O)(=O)n1nc(-c2cc(=O)c(O)c[nH]2)n(CC(N)=O)c1=O

System: Pseudomonas aeruginosa
Experiment: Antimicrobial activity against Pseudomonas aeruginosa PA-4995
Type: functional

Row | MIC90 [µg/mL] | SMILES
22 | 0.06 (≈ 0.0843 µM) | C[C@H]1[C@H](NC(=O)/C(=N\OC(C)(C)C(=O)O)c2csc(N)n2)C(=O)N1C(=O)NS(=O)(=O)n1nc(-c2cc(=O)c(O)c[nH]2)n(CC(N)=O)c1=O

System: Pseudomonas aeruginosa
Experiment: Antimicrobial activity against Pseudomonas aeruginosa 1619-08
Type: functional

Row | MIC90 [µg/mL] | SMILES
23 | 0.06 (≈ 0.0843 µM) | C[C@H]1[C@H](NC(=O)/C(=N\OC(C)(C)C(=O)O)c2csc(N)n2)C(=O)N1C(=O)NS(=O)(=O)n1nc(-c2cc(=O)c(O)c[nH]2)n(CC(N)=O)c1=O

System: Pseudomonas aeruginosa
Experiment: Antimicrobial activity against Pseudomonas aeruginosa 1761-00
Type: functional

Row | MIC90 [µg/mL] | SMILES
24 | 0.5 (≈ 0.703 µM) | C[C@H]1[C@H](NC(=O)/C(=N\OC(C)(C)C(=O)O)c2csc(N)n2)C(=O)N1C(=O)NS(=O)(=O)n1nc(-c2cc(=O)c(O)c[nH]2)n(CC(N)=O)c1=O

System: Pseudomonas aeruginosa
Experiment: Antimicrobial activity against Pseudomonas aeruginosa 1561-05
Type: functional

Row | MIC90 [µg/mL] | SMILES
25 | 0.5 (≈ 0.703 µM) | C[C@H]1[C@H](NC(=O)/C(=N\OC(C)(C)C(=O)O)c2csc(N)n2)C(=O)N1C(=O)NS(=O)(=O)n1nc(-c2cc(=O)c(O)c[nH]2)n(CC(N)=O)c1=O

System: Pseudomonas aeruginosa
Experiment: Antimicrobial activity against Pseudomonas aeruginosa 1951-00
Type: functional

Row | MIC90 [µg/mL] | SMILES
26 | 0.25 (≈ 0.351 µM) | C[C@H]1[C@H](NC(=O)/C(=N\OC(C)(C)C(=O)O)c2csc(N)n2)C(=O)N1C(=O)NS(=O)(=O)n1nc(-c2cc(=O)c(O)c[nH]2)n(CC(N)=O)c1=O
